Biological target: T1, human TRPC6 (Homo sapiens, UniProt Q9Y210)
T1 construct: expressed in transfected cells
T1 sequence (Q9Y210 1-931): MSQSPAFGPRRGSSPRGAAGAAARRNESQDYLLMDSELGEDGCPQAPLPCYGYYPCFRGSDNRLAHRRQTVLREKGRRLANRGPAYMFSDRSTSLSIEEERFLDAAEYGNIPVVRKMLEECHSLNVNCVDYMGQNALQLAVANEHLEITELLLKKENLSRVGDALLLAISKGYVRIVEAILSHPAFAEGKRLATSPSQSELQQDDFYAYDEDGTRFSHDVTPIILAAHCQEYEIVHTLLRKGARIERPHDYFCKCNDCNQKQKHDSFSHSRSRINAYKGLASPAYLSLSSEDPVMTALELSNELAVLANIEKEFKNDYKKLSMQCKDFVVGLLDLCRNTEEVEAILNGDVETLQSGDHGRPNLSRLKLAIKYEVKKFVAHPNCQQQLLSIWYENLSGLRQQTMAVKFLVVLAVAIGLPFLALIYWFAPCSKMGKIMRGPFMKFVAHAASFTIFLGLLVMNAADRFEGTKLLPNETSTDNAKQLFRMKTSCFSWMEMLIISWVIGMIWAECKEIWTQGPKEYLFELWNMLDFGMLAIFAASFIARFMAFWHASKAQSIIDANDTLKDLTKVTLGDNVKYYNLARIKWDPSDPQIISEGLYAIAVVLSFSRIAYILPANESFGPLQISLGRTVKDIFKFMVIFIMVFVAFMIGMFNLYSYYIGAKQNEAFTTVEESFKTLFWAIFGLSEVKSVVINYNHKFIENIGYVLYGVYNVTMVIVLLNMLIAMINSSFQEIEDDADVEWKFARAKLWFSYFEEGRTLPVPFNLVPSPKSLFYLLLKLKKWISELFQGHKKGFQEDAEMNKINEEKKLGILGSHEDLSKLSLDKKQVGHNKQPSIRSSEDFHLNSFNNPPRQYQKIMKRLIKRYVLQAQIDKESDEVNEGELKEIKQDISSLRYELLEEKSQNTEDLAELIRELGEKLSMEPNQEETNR
Assay: High throughput screening assay: Fluo4/AM calcium fluorescence in HEK293/TREx cells expressing human TRPC6, agonist GSK1702934A (single concentration 10 μM and IC50 curves)
Format: cell-based
Settings: antagonist effect against human TRPC6, 7 concentrations 20 μM to 0.027 μM, triplicate
From the text: High Throughput Screening Assay
This screening assay measures human TRPC6 (transient receptor potential cation channel, subfamily C, member 6) ion channel activation via addition either of the commercially available DAG ligand analogue OAG (1-oleoyl-2-acetyl-sn-glycerol) or of the TRPC6 agonist 1-[1-(4,5,6,7,8-pentahydrocyclohepta[2,1-d]thiophen-2-ylcarbonyl)-4-piperidyl]-3-hydrobenzimidazol-2-one (GSK1702934A). The assay utilizes a fluorescent calcium sensor 4-(6-Acetoxymethoxy-2,7-difluoro-3-oxo-9-xanthenyl)-4′-methyl-2,2′-(ethylenedioxy)dianiline-N,N,N′,N′-tetraacetic acid tetrakis(acetoxymethyl) ester (Fluo4/AM) dye from Molecular Devices. Changes (increases) in intracellular calcium concentration as measured by the fluorescent signal increase provide a measurement of channel activity.
The commercially available HEK293/TREx line (Invitrogen) was stably transfected with a human TRPC6 construct and screened by conventional calcium imaging to find clones with human TRPC6 expression following stimulation with 1 μg/ml tetracycline. These cells were maintained in the growth medium recommended by the manufacturer supplemented with 100 μg/ml hygromycin to promote retention of the human TRPC6 construct. After growing to near confluency, cells were plated at a density of ^˜35,000 cells/well in 384 well CellBind plates (Corning) in the presence of 1 μg/ml tetracycline, and allowed to grow for 20-30 hrs. A nearly confluent monolayer resulted. Growth media was removed from the wells and cells were then loaded with […] Fluo4/AM diluted in Ringer's Solution (6.5 g NaCl, 0.42 g KCl, 0.25 g CaCl2) and 0.2 g of sodium bicarbonate; pH 7.4) supplemented with 1% Pluronic F-127 to a final concentration of 0.5 μM and incubated for 60 min, at room temperature. Dye solution was then removed from the cells by inverting plates with a sharp flick, and replaced with 25 μl Ringer's. Following ^˜0.5 hour for recovery from loading, cells were assayed using the Hamamatsu FDSS 6000 system, which permitted illumination at 485 nm. Frames were acquired at a rate of 0.2 Hz. During the assay, the plates were continuously vortexed, with pipette mixing of wells following addition of each reagent. For the screening assay, 26 μl of a diluted compound stock (at 50 μM) was added to each well for 2 minutes following the collection of a short (4 frame) baseline. 13 μl of agonist solution consisting of 125 nM GSK1702934A diluted in high-Ca2+Ringer solution (containing 90 mM Ca2+) was then added to each well, achieving a final concentration of 20 mM Ca2+ and 10 μM test compound. Data was collected for ^˜3 minutes following addition of high Ca2+Ringer. The fluorescent intensity observed at a particular timepoint for each well was divided by the initial fluorescent intensity for that well and the overall response was determined by averaging the resulting fluorescent ratio of the last 4 frames acquired during the experiment excepting the final frame. Negative and Positive controls were included on each plate. Negative controls wells consisted of HEK293/TREx TRPC6 cells exposed to assay buffer and agonist solution, but no test compound. Positive control consisted of wells consisted of HEK293/TREx TRPC6 cells exposed to 25 μM 3-[(2-chlorophenoxy)methyl]phenyl piperidyl ketone (Chembridge) diluted in Ringer's solution and agonist solution. These controls defined zero percent and 100 percent block respectively, and intensity of each well was normalized to these values.
Compounds were tested in triplicate at all concentrations. Standard software was used to fit IC50 curves.

Compared with Cc1cc(-c2ccc(C(F)(F)F)cc2)ccc1C(=O)N1CCC(c2ccc(N)nn2)CC1 [Compound 69, [4-(6-Amino-pyridazin-3-yl)-piperidin-1-yl]-(3-methyl-4′-trifluoromethyl-biphenyl-4-yl)-methanone], CC(C)(C)c1ccc(-c2ccc(C(=O)N3CCC(c4ccc(N)nn4)CC3)cc2)cc1 [Compound 10, [4-(6-Amino-pyridazin-3-yl)-piperidin-1-yl]-(4′-tert-butyl-biphenyl-4-yl)-methanone] is 26-fold higher in IC50: 360 nM for the first, 9200 nM for the second.

Going from COc1cc(C(=O)N2CCN(c3cnc(N)cc3OC)CC2)ncc1-c1ccc(C(F)(F)F)cc1 [Compound 103, [4-(6-Amino-4-methoxy-pyridin-3-yl)-piperazin-1-yl]-[4-methoxy-5-(4-trifluoromethyl-phenyl)-pyridin-2-yl]-methanone] to COc1cc(C(=O)N2CCN(c3cnc(N)cc3OC)C[C@@H]2[C@H](C)O)ncc1-c1ccc(C(F)(F)F)cc1 [Compound 107], the IC50 rises from 27 nM to 210 nM (7.8-fold). The first is the more potent here.

First: CCc1ccc(-c2cnc(C(=O)N3CCC(c4ccc(N)nn4)CC3)cc2OC)cn1 [Compound 44, [4-(6-Amino-pyridazin-3-yl)-piperidin-1-yl]-(6′-ethyl-4-methoxy-[3,3′]bipyridinyl-6-yl)-methanone]
Second: COc1cc(C(=O)N2CCC(c3ccc(N)nn3)CC2)ncc1-c1ccc(C2CC2)nc1 [Compound 43, [4-(6-Amino-pyridazin-3-yl)-piperidin-1-yl]-(6′-cyclopropyl-4-methoxy-[3,3′]bipyridinyl-6-yl)-methanone]
The IC50 of the first is 4.4-fold higher: 1700 nM for the first, 390 nM for the second. The second is the more potent here.

COc1ccc(-c2ccc(C(=O)N3CCC(c4ccc(N)nn4)CC3)cc2)cc1 [Compound 5, [4-(6-Amino-pyridazin-3-yl)-piperidin-1-yl]-(4′-methoxy-biphenyl-4-yl)-methanone] and Nc1ccc(C2CCN(C(=O)c3ccc(-c4ccc(Cl)cc4)cc3)CC2)nn1 [Compound 4, [4-(6-Amino-pyridazin-3-yl)-piperidin-1-yl]-(4′-chloro-biphenyl-4-yl)-methanone] are within 1.5-fold of each other in IC50: 2500 nM for the first, 1900 nM for the second.

COc1cc(C(=O)N2CCC(c3ccc(N)nn3)CC2)ncc1-c1ccc(OC(F)(F)F)cc1 [Compound 31, [4-(6-Amino-pyridazin-3-yl)-piperidin-1-yl]-[4-methoxy-5-(4-trifluoromethoxy-phenyl)-pyridin-2-yl]-methanone] and COc1cc(C(=O)N2CCC(c3ccc(N)nn3)CC2)ncc1-c1ccc(OCC(F)(F)F)cc1 [Compound 29, [4-(6-Amino-pyridazin-3-yl)-piperidin-1-yl]-{4-methoxy-5-[4-(2,2,2-trifluoro-ethoxy)-phenyl]-pyridin-2-yl}-methanone] are within 1.5-fold of each other in IC50: 94 nM for the first, 110 nM for the second.

First: CCc1ccc(-c2ccc(C(=O)N3CCC(c4ccc(N)nn4)CC3)cc2)cc1 [Compound 2, [4-(6-Amino-pyridazin-3-yl)-piperidin-1-yl]-(4′-ethyl-biphenyl-4-yl)-methanone]
Second: CC[C@@H](C)Oc1ccc(-c2ccc(C(=O)N3CCC(c4ccc(N)nn4)CC3)cc2OC)cn1 [Compound 74, [4-(6-Amino-pyridazin-3-yl)-piperidin-1-yl]-{4-[6-((R)-sec-butoxy)-pyridin-3-yl]-3-methoxy-phenyl}-methanone]
The IC50 of the first is 14-fold higher: 2000 nM for the first, 140 nM for the second.

Going from COc1cc(C(=O)N2C[C@@H]3C[C@H]2CN3c2ccc(N)nn2)ncc1-c1ccc(C(F)(F)F)cc1 [Compound 116, [(1S,4S)-5-(6-Amino-pyridazin-3-yl)-2,5-diaza-bicyclo[2.2.1]hept-2-yl]-[4-methoxy-5-(4-trifluoromethyl-phenyl)-pyridin-2-yl]-methanone] to COc1cc(C(=O)N2CCC(c3ccc(N)nn3)CC2)ncc1-c1ccc(Cl)cc1 [Compound 40, [4-(6-Amino-pyridazin-3-yl)-piperidin-1-yl]-[5-(4-chloro-phenyl)-4-methoxy-pyridin-2-yl]-methanone], the IC50 falls from 190 nM to 73 nM (2.6-fold). The second is the more potent here.

Compared with COc1cc(C(=O)N2CCC(c3ccc(N)nn3)CC2)ncc1-c1ccc(C(F)(F)F)nc1 [Compound 42], COc1cc(C(=O)N2CCC(c3ccc(N)nc3)CC2)ncc1-c1ccc(C(F)(F)F)nc1 [Compound 97, (6-Amino-3′,4′,5′,6′-tetrahydro-2′H-[3,4′]bipyridinyl-1′-yl)-(4-methoxy-6′-trifluoromethyl-[3,3′]bipyridinyl-6-yl)-methanone] is 10-fold lower in IC50: 700 nM for the first, 69 nM for the second. The second is the more potent here.

Going from COc1cc(C(=O)N2CCC(c3ccc(N)nn3)CC2)ncc1-c1cnc(OCC(F)(F)F)nc1 [Compound 54] to COc1cc(C(=O)N2CCC(c3ccc(N)nn3)CC2)ncc1-c1ccc(OCC2CC2)nc1 [Compound 50, [4-(6-Amino-pyridazin-3-yl)-piperidin-1-yl]-(6′-cyclopropylmethoxy-4-methoxy-[3,3′]bipyridinyl-6-yl)-methanone], the IC50 falls from 830 nM to 190 nM (4.4-fold). The second is the more potent here.

First: COc1cc(C(=O)N2CCC(c3ccc(N)nn3)CC2)ncc1-c1ccccc1 [Compound 32, [4-(6-Amino-pyridazin-3-yl)-piperidin-1-yl]-(4-methoxy-5-phenyl-pyridin-2-yl)-methanone]
Second: COc1cc(C(=O)N2CCC(c3ccc(N)nc3)CC2)ncc1-c1ccccc1 [Compound 71, 5-[1-(4-Methoxy-5-phenylpyridine-2-carbonyl)piperidin-4-yl]pyridin-2-amine]
The IC50 of the first is 4.1-fold higher: 110 nM for the first, 27 nM for the second.

First: COc1cc(C(=O)N2CCC(c3ccc(N)nn3)CC2)ncc1-c1ccc(OCC2CC2)c(Cl)c1 [Compound 18]
Second: COc1cc(C(=O)N2CCC(c3ccc(N)nn3)CC2)ncc1-c1ccc(OC(F)F)cc1 [Compound 39, [4-(6-Amino-pyridazin-3-yl)-piperidin-1-yl]-[5-(4-difluoromethoxy-phenyl)-4-methoxy-pyridin-2-yl]-methanone]
The IC50 of the first is 8.4-fold higher: 2700 nM for the first, 320 nM for the second.

First: COc1cc(C(=O)N2CCC(c3ccc(N)nn3)CC2)ccc1-c1ccc(C(F)(F)F)nc1 [Compound 59, [4-(6-Amino-pyridazin-3-yl)-piperidin-1-yl]-[3-methoxy-4-(6-trifluoromethyl-pyridin-3-yl)-phenyl]-methanone]
Second: COc1cc(C(=O)N2CCC(c3ccc(N)nn3)CC2)ccc1-c1ccc(OCC2(C)CC2)nc1 [Compound 79, 6-[1-(3-Methoxy-4-{6-[(1-methylcyclopropyl)methoxy]pyridin-3-yl}benzoyl)piperidin-4-yl]pyridazin-3-amine]
The IC50 of the first is 5.3-fold higher: 640 nM for the first, 120 nM for the second. The second is the more potent here.

COC[C@H]1CN(c2cnc(N)cc2OC)CCN1C(=O)c1cc(OC)c(-c2ccccc2)cn1 [Compound 100, [(R)-4-(6-Amino-4-methoxy-pyridin-3-yl)-2-methoxymethyl-piperazin-1-yl]-(4-methoxy-5-phenyl-pyridin-2-yl)-methanone] was tested, and the IC50 was 230 nM.
